Results on one molecule are retold here after patent US20030125269A1, “T-TYPE CALCIUM CHANNEL” (priority 1998, published 2003).

“Also recorded” adds a separate entry of the source. Where a name gives a salt, the structure may show the parent alone.

The conditions of data set [1]: rat; cited from earlier work.
In another data set the test system is L-type Ca^2+ current. Put plainly: Patch clamp recording (whole-cell and perforated patch) of L-type Ca^2+ current in insulin-secreting (INS-1) cells. It counts as cell-based, rat. As to the method: (§1) Cell Culture—INS-1 cells were cultured in RPMI 1640 medium containing 10% FBS, 25 U/ml penicillin, […] streptomycin and 50 μM mercaptoethanol in an atmosphere of 5% CO2 in air, at 37° C. for 2-5 days before recording.
(§2) β-cells Electrophysiological recording—The whole-cell recordings were carried out by the standard “giga-seal” patch clamp technique (Hamill et al.). The whole-cell recording pipettes were made of hemocapillaries (Warner), pulled by a two-stage puller (PC-10, Narishige International, New York, N.Y.), and heat polished with a microforge (MF200-1, World Precision Instruments, Sarasota, Fla.) before use. Pipette resistance was in the range of 2-5 MΩ in the internal solution. The recordings were performed at room temperature (22-25° C.). Currents were recorded using an EPC-9 patch-clamp amplifier (HEKA) and filtered at 2.9 kHz. Data were acquired with Pulse/PulseFit software (HEKA). Voltage-dependent currents were corrected for linear leak and residual capacitance by using an on-line P/n subtraction paradigm.
(§3) Solutions—The extracellular solution used in whole-cell Ca^2+ current recording contained (in mM): 10 CaCl21 110 tetraethylammonium-Cl (TEA-Cl), 10 CsCl, 10 N-2-hydroxyethylpiperazine-N′-2-ethanesulfonic acid (HEPES), 40 sucrose, 0.5 3,4-diaminopyridine, pH 7.3. The intracellular solution contained (in mM): 130 N-methyl-D-glucamine, 20 EGTA (free acid), 5 bis (2-aminophenoxy) ethane-N,N,N′,N′-tetraacetate (BAPTA), 10 HEPES, 6 MgCl2, 4 Ca(OH)2/pH was adjusted to 7.4 with methanesulfonate. 2 mM Mg-ATP was included in the pipette solution to minimize rundown of L-type Ca^2+ currents. For Perforated-patch recording, the extracellular solution contained (in mM): 26 Sucrose, 30 TEA-Cl, 10 HEPES, 5 KCl, 2 CaCl2, MgCl2, pH 7.3. The pipette solution contained (in mM): 65 CsOH, 65 CsMS, 20 sucrose, 10 HEPES, 10 MgCl2, 1 Ca(OH)2, pH 7.4.
(§4) The T-type Ca^2+ current was measured at −30 mV when the membrane was held at −90 mV and the L-type current was measured at +20 mV when the membrane was held at −40 mV. The currents were measured twice at each concentration of mibefradil with 2 min in between measurements.
(§5) A drug diffusing system was then used to test the reversibility of the antagonism of T- and L-type Ca^2+ currents by mibefradil. Small volumes (approximately 2 μl) of drugs were delivered in close proximity to the recording cell with a quartz capillary positioned by a micromanipulator. After administration, drugs diffused throughout the entire recording chamber containing 2 ml of bath solution. This drug diffusing system was used to test the reversibility of 30 μM of NiCl2 on the T-type Ca^2+ currents (FIG. 4).
This hypothesis was tested by applying a very low dose of mibefradil on cells and recording the L-type Ca^2+ currents for a long time in the perforated patch-clamp configuration.

For another data set, the system named is β-TC3 cells. Put plainly: Cytokine-induced DNA fragmentation in β-TC3 cells. To be noted: β-TC3 cells (n=2); same results in NIT-1 cells (n=3). The format is cell-based, mouse.
In data set [2] the test system is NIT-1 cells. Put plainly: Cytokine-induced cell death in NIT-1 cells. The format is cell-based, mouse.
In data set [3] the test system is NIT-1 cells. Put plainly: Basal insulin secretion in NIT-1 cells. The format is cell-based, mouse. To be noted: 5 μM mibefradil, 3 mM glucose. The source says:
NIT-1 is a cell line derived from the β-cells of non-obese-diabetic mouse. This cell line expressed high levels of T-type Ca^2+ current.

The subject of another data set is INS-1 cells. Put plainly: Basal [Ca^2+]i in INS-1 cells by fura-2 fluorescence. To be noted: 1 μM, single INS-1 cell with basal [Ca^2+]i near 150 nM, no glucose; dihydrochloride. It counts as cell-based, rat. As to the method: [Ca^2+]i was directly measured by the ratio of fluorescence excitations at Ca^2+-bound […], and then the ratio was converted to the calcium concentration. The bath solution contained […], 4 mM KCl, 2 mM CaCl2, and 2 mM MgCl2.
The effect of basal [Ca^2+]i on Ca^2+ influx was examined using the Ca^2+ dye indicator fura-2 and fluorescence measurements. Voltage-dependent Ca^2+ influx in a single cell was obtained by perfusion of an osmotically balanced solution containing 50 mM KCl into the recording chamber. […] The resting basal [Ca^2+]i in INS-1 cells was approximately 60-80 nM under the experimental conditions. [Ca^2+]i was determined by a standard curve obtained from a fura-2 calcium imaging kit (Molecule Probes). The empirical Kd obtained for calcium binding to fura-2 in the system was 296±20 nM. When basal [Ca^2+]i remains low, subsequent voltage stimulation with 50 KCl induces rapid and large calcium influx into the cell and these calcium changes are stereotyped upon repetitive stimulation when basal calcium is restored (FIG. 10). In this experiment, following the 50 KCl depolarization, the cell was repolarized by perfusion of the original 5 mM KCl solution. After repolarization, basal [Ca^2+]i slowly reset and then a second 50 KCl depolarization induced a similar [Ca^2+]i transient. When the basal calcium is not allowed to reset, a defect in the second voltage induced calcium transient occurs (FIG. 11). […] Therefore effectors of basal [Ca^2+]i will have important impact on the amount of calcium that can enter the cell.

The test system of data set [4] is T-type Ca^2+ current. To be noted: vascular smooth muscle cells; cited from earlier work.
For data set [5], the target named is T-type Ca^2+ current (Rattus norvegicus, UniProt O54898). Put plainly: Patch clamp recording of T-type Ca^2+ current in insulin-secreting (INS-1) cells. It counts as cell-based. As to the method:
as §1, §2, §3, §4, §5
Background: The patch-clamp technique gives a direct electrical read-out from membranes.

Data set [6] is described as follows: Mass spectrometric analysis of mibefradil and dm-mibefradil in INS-1 cells.
Description: Mass Spectrometric Analysis—A VG 70-250 SEQ instrument (VG Analytical, Manchaster, UK) was used with fast atom bombardment (FAB) ionization mode to obtain mass spectra of the mibefradil and dm-mibefradil. Cultured INS-1 cells were treated with 20 μM mibefradil for various lengths of time under each experimental condition. The cell pellets were collected after washing three times with PBS and resuspended in 0.5 ml media for mass spectrometric analysis. For a 50 μl cell sample, 20 μl internal standard solution (40 μM verapamil, MW: 454) and 5 μl glycerol was added, and 4 μl of this mixture was used for FAB-MS. Several positive ion spectra were recorded in the mass range m/z 750-100 at a mass resolution of 1000, and a scan speed of 2 second/decade. For mibefradil, m/z 496 was the dominant ion (M+H)^+ accompanied with a less intense sodiated molecular ion m/z 518. The concentrations of the mibefradil and hydrolyzed mibefradil were obtained by comparing the intensities of m/z 496 and 424 were to the intensity of m/z 455. For calibration, a standard solution of 50 μM drug was subjected to mass spectrometric analysis.
To test the hypothesis that mibefradil may permeate through the cell membrane to the cytoplasm and be trapped inside cells, the presence of mibefradil was examined in cells pre-incubated with 20 μM of mibefradil using mass spectrometry. […] The localization of mibefradil in cells was examined by measuring the concentration of mibefradil in the pellets and supernatants after lysis of the cells.
[7] abbreviates: 1 μM in the pipette solution, whole-cell, 5 min after patch formation.
Setting [8] is: cells pre-incubated with 20 μM mibefradil.

Chain of T-type Ca^2+ current (Rattus norvegicus, UniProt O54898) (O54898 whole entry): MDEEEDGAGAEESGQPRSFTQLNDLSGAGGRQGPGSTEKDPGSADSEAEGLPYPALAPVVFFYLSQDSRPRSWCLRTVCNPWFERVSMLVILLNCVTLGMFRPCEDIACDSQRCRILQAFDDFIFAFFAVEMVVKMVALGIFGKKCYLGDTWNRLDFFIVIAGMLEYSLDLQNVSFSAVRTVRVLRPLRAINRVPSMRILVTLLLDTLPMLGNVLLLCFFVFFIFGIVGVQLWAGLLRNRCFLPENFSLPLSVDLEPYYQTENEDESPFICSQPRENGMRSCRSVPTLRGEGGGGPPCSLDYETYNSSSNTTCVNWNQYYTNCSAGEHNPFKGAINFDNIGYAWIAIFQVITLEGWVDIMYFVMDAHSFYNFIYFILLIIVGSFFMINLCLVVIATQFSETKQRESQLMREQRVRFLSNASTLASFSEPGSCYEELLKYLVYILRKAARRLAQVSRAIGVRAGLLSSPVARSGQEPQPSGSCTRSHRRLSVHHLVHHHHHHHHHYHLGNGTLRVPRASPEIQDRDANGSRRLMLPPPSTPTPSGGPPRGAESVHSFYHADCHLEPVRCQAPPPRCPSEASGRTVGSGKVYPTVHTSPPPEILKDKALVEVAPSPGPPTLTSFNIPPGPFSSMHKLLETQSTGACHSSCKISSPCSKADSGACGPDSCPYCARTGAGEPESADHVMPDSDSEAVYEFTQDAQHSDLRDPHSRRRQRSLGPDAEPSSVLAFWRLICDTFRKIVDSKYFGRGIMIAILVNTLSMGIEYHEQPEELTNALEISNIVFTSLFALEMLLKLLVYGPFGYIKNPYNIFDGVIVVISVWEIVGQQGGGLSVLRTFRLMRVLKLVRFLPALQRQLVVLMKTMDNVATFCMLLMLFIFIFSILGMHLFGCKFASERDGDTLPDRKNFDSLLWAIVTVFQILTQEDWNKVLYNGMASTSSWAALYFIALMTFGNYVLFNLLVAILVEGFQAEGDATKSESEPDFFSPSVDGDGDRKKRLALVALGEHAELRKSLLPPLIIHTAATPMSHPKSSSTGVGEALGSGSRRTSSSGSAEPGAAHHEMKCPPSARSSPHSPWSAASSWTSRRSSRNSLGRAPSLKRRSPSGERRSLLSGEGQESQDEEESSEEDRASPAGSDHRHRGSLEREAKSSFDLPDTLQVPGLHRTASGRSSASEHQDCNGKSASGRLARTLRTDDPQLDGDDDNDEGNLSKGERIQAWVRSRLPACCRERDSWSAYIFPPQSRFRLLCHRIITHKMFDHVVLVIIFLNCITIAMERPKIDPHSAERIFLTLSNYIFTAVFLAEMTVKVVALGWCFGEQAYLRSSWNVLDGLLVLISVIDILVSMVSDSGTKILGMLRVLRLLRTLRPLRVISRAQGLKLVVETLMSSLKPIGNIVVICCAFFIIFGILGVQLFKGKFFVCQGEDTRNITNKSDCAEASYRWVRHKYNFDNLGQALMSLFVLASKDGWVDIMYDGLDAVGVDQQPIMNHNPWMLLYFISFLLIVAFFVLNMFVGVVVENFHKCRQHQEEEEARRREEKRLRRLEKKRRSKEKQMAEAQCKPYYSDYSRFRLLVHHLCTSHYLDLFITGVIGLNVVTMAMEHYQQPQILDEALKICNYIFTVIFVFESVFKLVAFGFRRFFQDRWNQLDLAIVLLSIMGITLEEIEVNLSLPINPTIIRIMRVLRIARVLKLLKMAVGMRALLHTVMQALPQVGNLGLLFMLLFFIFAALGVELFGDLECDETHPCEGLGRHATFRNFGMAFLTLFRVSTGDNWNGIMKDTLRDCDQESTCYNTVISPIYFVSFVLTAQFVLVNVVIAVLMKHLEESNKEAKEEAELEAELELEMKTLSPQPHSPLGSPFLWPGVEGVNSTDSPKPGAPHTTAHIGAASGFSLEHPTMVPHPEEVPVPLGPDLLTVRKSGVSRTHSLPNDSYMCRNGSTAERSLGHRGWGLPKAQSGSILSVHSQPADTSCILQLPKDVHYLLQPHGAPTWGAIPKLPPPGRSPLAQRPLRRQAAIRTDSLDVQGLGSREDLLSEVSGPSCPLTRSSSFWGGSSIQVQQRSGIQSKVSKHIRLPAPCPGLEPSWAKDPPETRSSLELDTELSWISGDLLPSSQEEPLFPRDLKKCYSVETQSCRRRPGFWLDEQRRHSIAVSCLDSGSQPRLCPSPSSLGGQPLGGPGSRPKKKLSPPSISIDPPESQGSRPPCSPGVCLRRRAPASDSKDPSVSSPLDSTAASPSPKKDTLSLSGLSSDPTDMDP

With `COCC(=O)O[C@]1(CCN(C)CCCc2nc3ccccc3[nH]2)CCc2cc(F)ccc2[C@@H]1C(C)C` [mibefradil, (1S,2S)-2-[2-[[3-(2-Benzimidazolyl)propyl]methyl-amino]ethyl]-6-fluoro-1,2,3,4-tetrahydro-1-isopropyl-2-napthyl methoxy-acetate dihydrochloride], the “effect on development of hyperinsulinemia” value in data set [1] is “prevented and reversed development of hyperinsulinemia”. The “relative L-type Ca^2+ currents” value in the data set on L-type Ca^2+ current (10 nM mibefradil, after 25 minutes, perforated patch-clamp) is listed as 70%. Also, the “L-type current densities after incubation” value in the data set with L-type Ca^2+ current (10 nM mibefradil, two hours incubation, perforated patches) was “further reduction of current densities”. In addition, the “effect on L-type Ca^2+ current from inside of cells” value in the data set on L-type Ca^2+ current (setting [7]) is “did not have inhibitory effects”. The “L-type Ca^2+ current, % of the beginning amplitude” value in the data set with L-type Ca^2+ current (1 μM mibefradil, after 10 minutes, whole-cell, n=4) is on record as “up to 70%”. The “block of L-type Ca^2+ current” value in the data set on L-type Ca^2+ current (1 μM, INS-1 cells) was “blocks T- and L-type Ca^2+ current”. In addition, in the data set on L-type Ca^2+ current (drug diffusing system, perforated patch), the “reversibility of the inhibition of L-type Ca^2+ current” value is on record as “poorly reversible”. In addition, the “effect on cytokine-induced DNA fragmentation” value in the data set on β-TC3 cells is listed as “prevented cytokine-induced DNA fragmentation”. The “effect on cytokine-induced cell death” value in the data set on NIT-1 cells [2] is listed as “reduced β-cells death induced by cytokines”. For the same molecule, the “basal insulin secretion relative to control” value in the data set on NIT-1 cells [3] is “less than 40”. For the same molecule, the “effect on basal [Ca^2+]i” value with INS-1 cells is “immediately lowered the basal calcium; also recorded: reduced basal [Ca^2+]i”. Further, the “inhibitory effect on T-type Ca^2+ current” value in the data set on T-type Ca^2+ current [4] is “potent inhibitory effect”. Further, the “long-term effect on the T-type Ca^2+ current” value at T-type Ca^2+ current [5] (10 nM, perforated patch) is “no long-term effect”. For the same molecule, the “block of T-type Ca^2+ current” value at T-type Ca^2+ current [5] (1 μM in recording chamber, conventional whole cell patch clamp, dihydrochloride) was “blocks T- and L-type Ca^2+ current”. In addition, the “effect on T-type Ca^2+ current from inside of cells” value on T-type Ca^2+ current [5] (setting [7]) is “did not have inhibitory effects”. Besides, the “sensitivity of T-type versus L-type Ca^2+ current” value on T-type Ca^2+ current [5] (1 μM, pancreatic β-cells) is “more sensitive”. On T-type Ca^2+ current [5] (drug diffusing system, small volume delivered near the cell, dihydrochloride), the “reversibility of the inhibition of T-type Ca^2+ current” value is recorded as “clearly reversible; also recorded: reversibly block T type Ca^2+ current”. In addition, at T-type Ca^2+ current [5] (whole-cell patch clamp, bath perfusion), the “time dependence of the inhibition of T-type Ca^2+ current” value is listed as “No time-dependent inhibition”. In data set [6] (cells incubated with 20 μM mibefradil for one minute, 3 washes, n=3), the “concentration of intracellular mibefradil” value worked out at 3.18 ± 0.78 µM. In addition, in data set [6] (setting [8]), the “share of mibefradil detected in the supernatants after lysis of the cells” value was 92% and the “share of mibefradil found in the pellets after washing with methanol” value is reported as 0%.
